The target of one experiment is T1, p38alpha (Homo sapiens, UniProt Q16539).
T1 construct: purchased Invitrogen PV3304
In words: P38Alpha enzyme inhibition assay (Alphascreen kinase activity assay). The format is biochemical. The following applies: 100 pM p38alpha, 250 μM ATP, 2 hours pre-incubation at 25° C., read-out: p38α inhibition (IC50 values). In short, it runs like this:
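p38α (100 pM) with ATF-2 fusion protein substrate (0.3 µg/ml) in pH 7.5 HEPES/MgCl2 buffer, 1% DMSO, preincubated 2 h at 25°C with compound. Reaction started with 250 µM ATP, ran 1 h at 25°C, then stopped with EDTA. Phospho-ATF2 antibody detected by AlphaScreen luminescence; IC50 from concentration-response curves.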

For experiment [1], the system named is LPS-stimulated TNFα release from PBMCs. In words: LPS-stimulated PBMC TNFα release assay. The following applies: inhibition of TNFα release, human PBMCs, LPS 10 ng/ml, 18 h, ELISA, read-out: p38α inhibition (IC50 values). The format is cell-based. On the procedure:
LPS-Stimulated PBMC TNFα Release Assay.
Peripheral Blood Mononuclear Cells (PBMCs) were isolated from healthy human volunteer blood using a standard density gradient centrifugation technique. Citrated blood was placed onto Histopaque™ and centrifuged. The PBMCs were removed from the density gradient interface and washed in phosphate buffered saline (PBS). The PBMCs were suspended in RPMI 1640 medium (without serum), dispensed into a 96-well plate and incubated at 37° C. for 3 h in a humidified incubator. After incubation, the medium was replaced (with medium containing 1% foetal bovine serum) and the plate incubated at 37° C., for 1 h, in the presence of test compound or the appropriate vehicle. LPS (10 ng/ml), or an appropriate vehicle control, was then added to the cells and the plate returned to the incubator for 18 h. Cell-free supernatants were removed and assayed for TNFα levels using an ELISA kit from R&D Systems.
A dose response curve to each test compound was performed and the effect of compound in each experiment was expressed as a percentage inhibition of the control TNFα release. Dose response curves were plotted and compound potency (IC50) was determined. Compounds were tested in at least three separate experiments.

Some results are limits rather than exact numbers.

T1 sequence (Q16539 whole entry): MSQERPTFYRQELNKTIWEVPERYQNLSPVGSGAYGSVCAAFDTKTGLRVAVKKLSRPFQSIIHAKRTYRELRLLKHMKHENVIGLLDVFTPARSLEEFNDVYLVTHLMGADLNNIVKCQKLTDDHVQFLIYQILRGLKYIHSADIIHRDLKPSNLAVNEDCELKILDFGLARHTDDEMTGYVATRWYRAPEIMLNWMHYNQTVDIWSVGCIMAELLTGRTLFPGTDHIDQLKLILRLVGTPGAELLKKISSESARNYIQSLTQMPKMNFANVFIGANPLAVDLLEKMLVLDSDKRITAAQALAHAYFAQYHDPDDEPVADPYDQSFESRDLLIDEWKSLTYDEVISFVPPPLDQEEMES

As to `CN1CCC[C@H]1c1nnc2ccc(O[C@@H]3CC[C@H](NC(=O)Nc4cc(C(C)(C)C)nn4-c4cccc(CO)c4)c4ccccc43)cn12` [Example 31, 1-[5-tert-Butyl-2-(3-hydroxymethyl-phenyl)-2H-pyrazol-3-yl]-3-{(1S,4R)-4-[3-((S)-1-methyl-pyrrolidin-2-yl)-[1,2,4]triazolo[4,3-a]pyridin-6-yloxy]-1,2,3,4-tetrahydro-naphthalen-1-yl}-urea], the concentration for half-maximal inhibition (IC50) (on p38alpha; in experiment [1]) was under 10 nM throughout.

Take `CN1CCC[C@H]1c1nnc2ccc(O[C@@H]3CC[C@H](NC(=O)Nc4cc(C(C)(C)C)nn4-c4ccc(CO)cc4)c4ccccc43)cn12` [Example 33, 1-[5-tert-Butyl-2-(4-hydroxymethyl-phenyl)-2H-pyrazol-3-yl]-3-{(1S,4R)-4-[3-((S)-1-methyl-pyrrolidin-2-yl)-[1,2,4]triazolo[4,3-a]pyridin-6-yloxy]-1,2,3,4-tetrahydro-naphthalen-1-yl}urea]: the 50% inhibitory concentration (IC50) (at p38alpha; in experiment [1]) was under 10 nM each time.

With `CC(C)(C)c1cc(NC(=O)N[C@H]2CC[C@@H](Oc3ccc4nnc(N5CCCCC5)n4c3)c3ccccc32)n(-c2ccc(CO)cc2)n1` [Example 34, 1-[5-tert-Butyl-2-(4-hydroxymethyl-phenyl)-2H-pyrazol-3-yl]-3-[(1S,4R)-4-(3-piperidin-1-yl-[1,2,4]triazolo[4,3-a]pyridin-6-yloxy)-1,2,3,4-tetrahydro-naphthalen-1-yl]-urea], the IC50 (at p38alpha; in experiment [1]) was under 10 nM in each case.

As for `CN1CCC[C@H]1c1nnc2ccc(O[C@@H]3CC[C@H](NC(=O)Nc4cc(C(C)(C)C)nn4-c4cccc(SCCO)c4)c4ccccc43)cn12` [Example 35, 1-{5-tert-Butyl-2-[3-(2-hydroxy-ethylsulfanyl)-phenyl]-2H-pyrazol-3-yl}-3-{(1S,4R)-4-[3-((S)-1-methyl-pyrrolidin-2-yl)-[1,2,4]triazolo[4,3-a]pyridin-6-yloxy]-1,2,3,4-tetrahydro-naphthalen-1-yl}-urea], the IC50 (at p38alpha; in experiment [1]) was under 10 nM throughout.

For `Cc1ccc(-n2nc(C(C)(C)CO)cc2NC(=O)N[C@H]2CC[C@@H](Oc3ccc4nnc(N5CCCCC5)n4c3)c3ccccc32)cc1` [Example 36, 1-[5-(2-Hydroxy-1,1-dimethyl-ethyl)-2-p-tolyl-2H-pyrazol-3-yl]-3-[(1S,4R)-4-(3-piperidin-1-yl-[1,2,4]triazolo[4,3-a]pyridin-6-yloxy)-1,2,3,4-tetrahydro-naphthalen-1-yl]-urea], the IC50 (at p38alpha; in experiment [1]) was under 10 nM throughout.

With `CN1CCC[C@H]1c1nnc2ccc(O[C@H]3C[C@H](NC(=O)Nc4cc(C(C)(C)C)nn4-c4ccc(CO)cc4)c4ccccc43)cn12` [Example 37, 1-[5-tert-Butyl-2-(4-hydroxymethyl-phenyl)-2H-pyrazol-3-yl]-3-{(1S,3S)-3-[3-((S)-1-methyl-pyrrolidin-2-yl)-[1,2,4]triazolo[4,3-a]pyridin-6-yloxy]-indan-1-yl}-urea], the concentration for half-maximal inhibition (IC50) (at p38alpha; in experiment [1]) was under 10 nM in each case.

On to `Cc1ccc(-n2nc(C(C)(C)C)cc2NC(=O)N[C@H]2CC[C@@H](Oc3ccc4nnc(N5CC[C@@H](O)C5)n4c3)c3ccccc32)cc1` [Example 38, 1-(5-tert-Butyl-2-p-tolyl-2H-pyrazol-3-yl)-3-{(1S,4R)-4-[3-((R)-3-hydroxy-pyrrolidin-1-yl)-[1,2,4]triazolo[4,3-a]pyridin-6-yloxy]-1,2,3,4-tetrahydro-naphthalen-1-yl}-urea], for which the half-maximal inhibitory concentration (IC50) (on p38alpha; in experiment [1]) was under 10 nM throughout.

Regarding `CC(C)(C)c1cc(NC(=O)N[C@H]2CC[C@@H](Oc3ccc4nnc(N5CCCCC5)n4c3)c3ccccc32)n(-c2cccc(OCCO)c2)n1` [Example 39, 1-{5-tert-Butyl-2-[3-(2-hydroxy-ethoxy)-phenyl]-2H-pyrazol-3-yl}-3-[(1S,4R)-4-(3-piperidin-1-yl-[1,2,4]triazolo[4,3-a]pyridin-6-yloxy)-1,2,3,4-tetrahydro-naphthalen-1-yl]-urea], the IC50 (on p38alpha; in experiment [1]) was under 10 nM in each case.

As for `CN(C)CCOc1cccc(-n2nc(C(C)(C)C)cc2NC(=O)N[C@H]2CC[C@@H](Oc3ccc4nnc(N5CCCCC5)n4c3)c3ccccc32)c1` [Example 40, 1-{5-tert-Butyl-2-[3-(2-dimethylamino-ethoxy)-phenyl]-2H-pyrazol-3-yl}-3-[(1S,4R)-4-(3-piperidin-1-yl-[1,2,4]triazolo[4,3-a]pyridin-6-yloxy)-1,2,3,4-tetrahydro-naphthalen-1-yl]-urea], the IC50 (at p38alpha; in experiment [1]) was under 10 nM throughout.

For the molecule `CN1CCN(Cc2cccc(-n3nc(C(C)(C)C)cc3NC(=O)N[C@H]3CC[C@@H](Oc4ccc5nnc(N6CCCCC6)n5c4)c4ccccc43)c2)CC1` [Example 41, 1-{5-tert-Butyl-2-[3-(4-methyl-piperazin-1-ylmethyl)-phenyl]-2H-pyrazol-3-yl}-3-[(1S,4R)-4-(3-piperidin-1-yl-[1,2,4]triazolo[4,3-a]pyridin-6-yloxy)-1,2,3,4-tetrahydro-naphthalen-1-yl]-urea], the IC50 (on p38alpha; in experiment [1]) was under 10 nM in each case.

In the case of `CN1CCC[C@H]1c1nnc2ccc(O[C@@H]3CC[C@H](NC(=O)Nc4cc(C(C)(C)C)nn4-c4cccc(OCCO)c4)c4ccccc43)cn12` [Example 42, 1-{5-tert-Butyl-2-[3-(2-hydroxy-ethoxy)-phenyl]-2H-pyrazol-3-yl}-3-{(1S,4R)-4-[3-((S)-1-methyl-pyrrolidin-2-yl)-[1,2,4]triazolo[4,3-a]pyridin-6-yloxy]-1,2,3,4-tetrahydro-naphthalen-1-yl}-urea], the IC50 (on p38alpha; in experiment [1]) was under 10 nM each time.

Consider `Cc1ccc(-n2nc(C(C)(C)C)cc2NC(=O)N[C@H]2CC[C@@H](Oc3ccc4nnc(N(C)CCN(C)C)n4c3)c3ccccc32)cc1` [Example 43, 1-(5-tert-Butyl-2-p-tolyl-2H-pyrazol-3-yl)-3-((1S,4R)-4-{3-[(2-dimethylamino-ethyl)-methyl-amino]-[1,2,4]triazolo[4,3-a]pyridin-6-yloxy}-1,2,3,4-tetrahydro-naphthalen-1-yl)-urea], for which the IC50 (at p38alpha; in experiment [1]) was under 10 nM throughout.

Turning to `CC(C)(C)c1cc(NC(=O)N[C@H]2CC[C@@H](Oc3ccc4nnc(N5CCCCC5)n4c3)c3ccccc32)n(-c2cccc(CN3CCCCC3)c2)n1` [Example 44, 1-[5-tert-Butyl-2-(3-piperidin-1-ylmethyl-phenyl)-2H-pyrazol-3-yl]-3-[(1S,4R)-4-(3-piperidin-1-yl-[1,2,4]triazolo[4,3-a]pyridin-6-yloxy)-1,2,3,4-tetrahydro-naphthalen-1-yl]-urea], the IC50 (on p38alpha; in experiment [1]) was under 10 nM each time.

With `Cc1ccc(-n2nc(C(C)(C)C)cc2NC(=O)N[C@H]2CC[C@@H](Oc3ccc4nnc([C@]5(C)CCCN5C)n4c3)c3ccccc32)cc1` [Example 47, 1-(5-tert-Butyl-2-p-tolyl-2H-pyrazol-3-yl)-3-{(1S,4R)-4-[3-((S)-1,2-dimethyl-pyrrolidin-2-yl)-[1,2,4]triazolo[4,3-a]pyridin-6-yloxy]-1,2,3,4-tetrahydro-naphthalen-1-yl}-urea], the IC50 (at p38alpha; in experiment [1]) was under 10 nM throughout.

Turning to `CC(C)(C)c1cc(NC(=O)N[C@H]2CC[C@@H](Oc3ccc4nnc(N5CCCCC5)n4c3)c3ccccc32)n(-c2cccc(COCCO)c2)n1` [Example 48, 1-{5-tert-Butyl-2-[3-(2-hydroxy-ethoxymethyl)-phenyl]-2H-pyrazol-3-yl}-3-[(1S,4R)-4-(3-piperidin-1-yl-[1,2,4]triazolo[4,3-a]pyridin-6-yloxy)-1,2,3,4-tetrahydro-naphthalen-1-yl]-urea], the half-maximal inhibitory concentration (IC50) (at p38alpha; in experiment [1]) was under 10 nM throughout.

With `Cc1ccc(-n2nc(C(C)(C)C)cc2NC(=O)N[C@H]2CC[C@@H](Oc3ccc4nnc(N5CCCOCC5)n4c3)c3ccccc32)cc1` [Example 49, 1-(5-tert-Butyl-2-p-tolyl-2H-pyrazol-3-yl)-3-[(1S,4R)-4-(3-[1,4]oxazepan-4-yl-[1,2,4]triazolo[4,3-a]pyridin-6-yloxy)-1,2,3,4-tetrahydro-naphthalen-1-yl]-urea], the IC50 (at p38alpha; in experiment [1]) was under 10 nM throughout.

`CC(C)(C)c1cc(NC(=O)N[C@H]2CC[C@@H](Oc3ccc4nnc(N5CCCCC5)n4c3)c3ccccc32)n(-c2cccc(CN3CCN(CCO)CC3)c2)n1` [Example 50, 1-(5-tert-Butyl-2-{3-[4-(2-hydroxy-ethyl)-piperazin-1-ylmethyl]-phenyl}-2H-pyrazol-3-yl)-3-[(1S,4R)-4-(3-piperidin-1-yl-[1,2,4]triazolo[4,3-a]pyridin-6-yloxy)-1,2,3,4-tetrahydro-naphthalen-1-yl]-urea]: the IC50 (on p38alpha; in experiment [1]) was under 10 nM throughout.
